US20230255927A1 (ELANCO TIERGESUNDHEIT AG, priority 2022, published 2023)

How the values were obtained:
lactating dairy cows = test: New York/Cornell Study: dietary monensin fed to lactating dairy cows; assay type: in vivo
From the text: Lactating dairy cows were used for the instant example. Methods: One-hundred ninety-two lactating cows (120±50 DIM) were randomly assigned to 12 pens each including 16 cows.

lactating Holstein cows = test: Wisconsin Study: dietary monensin fed to lactating cows for 9 weeks; assay type: in vivo
Procedure: Methods: […] All cows received 11 g/ton Rumensin for a 5-week covariate period after which pens received 1 of 4 dietary treatments (n=3) formulated to provide 0 g/ton (Control, “CON”), 11 g/ton (R11), 14.5 g/ton (R14.5), or 18 g/ton (R18) of Rumensin for 9 weeks. Basal diet was 54% forage and 27% Neutral Detergent Fiber (NDF), 29% starch, and 2.3% Rumen Unsaturated Fatty Acid Load (RUFAL). The pen was the experimental unit, and data were analyzed using the Fit Model Procedure of JMP with treatment as a fixed effect and pen as a random effect. LS-means were determined and contrasts of CON vs. R11, CON vs. R14.5, CON vs. R18, and linear and quadratic effects were tested.

[1] = all treatments, not affected by treatment

CC[C@@]1([C@@H]2O[C@@H]([C@H]3O[C@@](O)(CO)[C@H](C)C[C@@H]3C)C[C@@H]2C)CC[C@H]([C@]2(C)CC[C@]3(C[C@H](O)[C@@H](C)[C@@H]([C@@H](C)[C@@H](OC)[C@H](C)C(=O)O)O3)O2)O1 [monensin]
DMI (lactating dairy cows; R11, 11 g/ton): 59 lb/d | ECM (lactating dairy cows; R11, 11 g/ton): 103 lb/d | Estimated Dietary Energy (lactating dairy cows; R11, 11 g/ton): 1.65 Mcal/kg DM | Milk Fat (lactating dairy cows; R11, 11 g/ton): 4.67% | Milk Yield (lactating dairy cows; R11, 11 g/ton): 88 lb/d | Protein (lactating dairy cows; R11, 11 g/ton): 3.38% | Energy-corrected milk (ECM) (lactating dairy cows; R11 group, 11 g/ton): 46.9 kg/day | Milk Yield (lactating dairy cows; R11 group, 11 g/ton): 39.9 kg/day | Milk fat yield (lactating dairy cows; R11 group, 11 g/ton): 1.83 kg/day | Milk protein yield (lactating dairy cows; R11 group, 11 g/ton): 1.33 kg/day | DMI (lactating dairy cows; R14.5, 14.5 g/ton): 59 lb/d | ECM (lactating dairy cows; R14.5, 14.5 g/ton): 104 lb/d | Estimated Dietary Energy (lactating dairy cows; R14.5, 14.5 g/ton): 1.65 Mcal/kg DM | Milk Fat (lactating dairy cows; R14.5, 14.5 g/ton): 4.71% | Milk Yield (lactating dairy cows; R14.5, 14.5 g/ton): 87 lb/d | Protein (lactating dairy cows; R14.5, 14.5 g/ton): 3.37% | Energy-corrected milk (ECM) (lactating dairy cows; R14.5 group, 14.5 g/ton): 47.1 kg/day | FA unsaturation compared to CON (lactating dairy cows; R14.5 group, 14.5 g/ton): significantly reduced | Milk Yield (lactating dairy cows; R14.5 group, 14.5 g/ton): 39.7 kg/day | Milk fat yield (lactating dairy cows; R14.5 group, 14.5 g/ton): 1.85 kg/day | Milk protein yield (lactating dairy cows; R14.5 group, 14.5 g/ton): 1.33 kg/day | DMI (lactating dairy cows; R18, 18 g/ton): 61 lb/d | ECM (lactating dairy cows; R18, 18 g/ton): 103 lb/d | Estimated Dietary Energy (lactating dairy cows; R18, 18 g/ton): 1.68 Mcal/kg DM | Milk Fat (lactating dairy cows; R18, 18 g/ton): 4.67% | Milk Yield (lactating dairy cows; R18, 18 g/ton): 87 lb/d | Protein (lactating dairy cows; R18, 18 g/ton): 3.39% | DMI (lactating dairy cows; R18 group, 18 g/ton): increased numerically | Energy-corrected milk (ECM) (lactating dairy cows; R18 group, 18 g/ton): 46.8 kg/day | FA unsaturation compared to CON (lactating dairy cows; R18 group, 18 g/ton): significantly reduced | Milk Yield (lactating dairy cows; R18 group, 18 g/ton): 39.6 kg/day | Milk fat yield (lactating dairy cows; R18 group, 18 g/ton): 1.83 kg/day | Milk protein yield (lactating dairy cows; R18 group, 18 g/ton): 1.33 kg/day | Milk fat percentage (lactating dairy cows; all treatment groups): greater than 4.6% | Milk true protein percent (lactating dairy cows; all treatment groups): ≥ 3.35% | Increase in ECM (lactating dairy cows; increasing monensin supplementation, non-significant): 2% | DMI (lactating Holstein cows; R11, 11 g/ton): 60 lb/d | De novo fatty acid yield (lactating Holstein cows; R11, 11 g/ton): 0.99 g/100 g milk | ECM (lactating Holstein cows; R11, 11 g/ton): 106 lb/d | Estimated Dietary Energy (lactating Holstein cows; R11, 11 g/ton): 1.70 Mcal/kg DM | Milk Fat (lactating Holstein cows; R11, 11 g/ton): 4.13% | Milk Yield (lactating Holstein cows; R11, 11 g/ton): 98 lb/d | Protein (lactating Holstein cows; R11, 11 g/ton): 3.16% | Milk fat yield increase vs. CON (lactating Holstein cows; R11, 11 g/ton, P=0.04): 0.08 kg/day | ECM/DMI increase vs. CON (lactating Holstein cows; R11, 11 g/ton, P=0.05): 2.9% | ECM increase vs CON (lactating Holstein cows; R11, 11 g/ton, P=0.09): 1.3 kg/day | DMI (lactating Holstein cows; R14.5, 14.5 g/ton): 60 lb/d | ECM (lactating Holstein cows; R14.5, 14.5 g/ton): 105 lb/d | Estimated Dietary Energy (lactating Holstein cows; R14.5, 14.5 g/ton): 1.71 Mcal/kg DM | Milk Fat (lactating Holstein cows; R14.5, 14.5 g/ton): 4.04% | Milk Yield (lactating Holstein cows; R14.5, 14.5 g/ton): 99 lb/d | Protein (lactating Holstein cows; R14.5, 14.5 g/ton): 3.14% | ECM/DMI increase vs. CON (lactating Holstein cows; R14.5, 14.5 g/ton, P=0.02): 3.5% | DMI (lactating Holstein cows; R18, 18 g/ton): 58 lb/d | ECM (lactating Holstein cows; R18, 18 g/ton): 102 lb/d | Estimated Dietary Energy (lactating Holstein cows; R18, 18 g/ton): 1.73 Mcal/kg DM | Milk Fat (lactating Holstein cows; R18, 18 g/ton): 3.97% | Milk Yield (lactating Holstein cows; R18, 18 g/ton): 97 lb/d | Protein (lactating Holstein cows; R18, 18 g/ton): 3.14% | Estimated dietary energy increase vs. CON (lactating Holstein cows; R18, 18 g/ton, P=0.01): 3.0% | ECM/DMI increase vs. CON (lactating Holstein cows; R18, 18 g/ton, P=0.09): 2.3% | DMI (lactating Holstein cows; R18, 18 g/ton, listed as Rumensin): 26.4 kg/day | Milk Yield (lactating Holstein cows; [1]): 44 kg/day | Milk fat percentage (lactating Holstein cows; [1]): 4.0% | Milk protein percentage (lactating Holstein cows; [1]): 3.2% | Milk protein yield (lactating Holstein cows; [1]): 1.4 kg/day
